Literature values as cited in patent US20260048046A1, “METHOD FOR IMPROVING GROWTH PERFORMANCE IN FEEDLOT CATTLE” (Elanco US Inc., priority 2022, published 2026).
Where two headings read alike, the source gives them in different places.

Test system: cattle
Conditions: zilpaterol 8.3 mg/kg diet DM, Holland et al. (2010), cited from earlier work

In the case of `CC(C)NC1CCn2c(=O)[nH]c3cccc(c32)C1O` (centres unmarked) [zilpaterol], the “Difference in HCW between zilpaterol fed and non-treated cattle” value (3 d removal prior to harvest) is listed as 14 kg, the “Difference in HCW between zilpaterol fed and non-treated cattle” value (10 d removal prior to harvest) is listed as 17 kg and the “Difference in HCW between zilpaterol fed and non-treated cattle” value (17 d removal prior to harvest) is listed as 5 kg. For the same compound, the “Difference in HCW between zilpaterol fed and non-treated cattle” value (24 d removal prior to harvest) was 6 kg and the “Final and carcass-adjusted final BW, effect of feeding zilpaterol” value (P≥0.14) was “not affected”.
